Results reported in PMC7790557, “Pleiotropic Properties of Amphiphilic Dihydropyridines, Dihydropyridones, and Aminovinylcarbonyl Compounds” (Oxidative Medicine and Cellular Longevity, 2020).
Like-named read-outs stand apart in the source and are kept apart here.

Experiments:
[1] = test system: HT-1080 (human lung fibrosarcoma); assay: Cytotoxicity, MTT assay, HT-1080; format: cell-based; conditions: Homo sapiens, read-out: HT-1080 IC50 (MTT)
Excerpt: (§1) Reduction takes place only when mitochondrial reductase enzymes are active, and therefore, conversion is directly related to the number of viable cells which can be quantified by the absorbance of the solution (between λ = 500 and 600 nm) using a spectrophotometer.

MH-22A (mouse hepatoma) [2] = assay: Cytotoxicity, crystal violet (CV) assay, MH-22A; format: cell-based; conditions: Mus musculus, read-out: MH-22A IC50 (CV)
Description: (§2) After incubation, the staining solution was removed. The cells were washed 4 times with water.

[3] = Cytotoxicity, crystal violet (CV) assay, MH-22A; format: cell-based, mouse; conditions: mouse, summarises CV and MTT values, read-out: cytotoxicity towards MH-22A cells; for IC50 at 72 h: MH-22A cells (hepatoma)
Description: as §2

[4] = test system: NIH3T3 (mouse embryonic fibroblast); assay: Basal cytotoxicity test, Neutral Red Uptake (NRU) assay; conditions: for IC50: Mus musculus, NIH3T3, 24 h
Description: The NRU cytotoxicity assay procedure is based on the ability of viable cells to incorporate and bind neutral red, a supravital dye.
Balb/c NIH 3T3 (mouse Swiss albino embryo fibroblast, ATCC® CRL-1658™) cells (9000 cells/well) were placed into 96-well plates for 24 h in Dulbecco's modified Eagle's medium (DMEM) containing 5% fetal bovine serum. Then, the cells were exposed to the test compound over a range of seven concentrations (1000, 316, 100, 31, 10, 3, and 1 μg/ml) for 24 h. Untreated cells were used as a control. After 24 h, the medium was removed from all plates. Then, 150 μl of neutral red solution was added (0.05 mg/ml NR in DMEM 24 h preincubated at 37°C and then filtered before use through a 0.22 μm syringe filter). Plates were incubated for 3 h, and then, the cells were washed three times with PBS. The dye within viable cells was released by extraction with a mixture of acetic acid, ethanol, and water (1 : 50 : 49). The absorbance of neutral red was measured using a spectrophotometer multiplate reader (Tecan Infinite M1000) at 540 nm. The optical density (OD) was calculated using the following formula: OD (treated cells) × 100/OD (control cells). The IC50 values were calculated using the GraphPad Prism® 3.0 program.

[5] = test system: HT-1080 (human lung fibrosarcoma); assay: Cytotoxicity, crystal violet (CV) assay, HT-1080; conditions: Homo sapiens, HT-1080, 72 h, read-out: HT-1080 IC50 (CV)
Description: (§3) IC50 is the compound concentration (μg/ml) at which 50% of the cells die. […] CV staining can be used to quantify the total DNA of the remaining population and thus is used to determine the number of live cells based on the concentration of the dye which remains after staining.
(§4) Tumor cell lines HT-1080 (human connective tissue fibrosarcoma, ATCC® CCL-121™) and MH-22A (mouse hepatocarcinoma, ECACC, cat. Nr. 96121721) were used.
(§5) HT-1080 and MH-22A cells were seeded in 96-well plates in Dulbecco's modified Eagle's (DMEM) medium containing 10% fetal bovine serum and 4 mM L-glutamine, without antibiotics, and cultivated for 72 h by exposure to different concentrations of compounds. Cell viability was measured using 3-(4,5-dimethylthiazol-2-yl)-2,5-diphenyltetrazolinium bromide (MTT). In brief, after incubating with compounds, the culture medium was removed and fresh medium with 0.2 mg/ml MTT was added in each well of the plate. After incubation (3 h, 37°C, 5% CO2), the medium with MTT was removed, and 200 μl DMSO was added at once to each sample. The samples were tested at 540 nm on a Tecan Infinite M1000 multiplate reader. The IC50 was calculated using the program GraphPad Prism® 3.0.
(§6) For the CV assay, cells were stained with 0.05% crystal violet (Sigma-Aldrich) in 30% methanol for 20 minutes at room temperature. After incubation, the staining solution was removed. The cells were washed 4 times with water. For dye solubilization, 200 μl of a solubilizing solution (0.1 M citrate buffer, pH 4.2 in 50% ethanol; 1 : 1 v/v) was added. The absorbance of the solution was measured using a Tecan Infinite M1000 multiplate spectrophotometer at a wavelength of 570 nm [21].

[6] = Cytotoxicity, crystal violet (CV) assay, HT-1080; conditions: human
Description: as §3, §4, §5, §6

MH-22A (mouse hepatoma) [7] = assay: Cytotoxicity, MTT assay, MH-22A; format: cell-based; conditions: Mus musculus, read-out: MH-22A IC50 (MTT)
Excerpt: as §1

in vitro [8] = format: cell-based; conditions: human and mouse, summarises both cell lines, CV and MTT, read-out: cytotoxicity on cancer cell lines HT-1080 and MH-22A
Description: as §2

[9] = Electrochemical oxidation potentials, cyclic voltammetry; format: physicochemical; conditions: glassy carbon electrode, dry acetonitrile; for Oxidation potential E^ox: Table 4, vs Ag/Ag+, 0.1 M TBABF4, tested as perchlorates; for electrooxidation potential: cyclic voltammetry
Description: A stationary glassy carbon disk electrode (d = 0.5 mm) served as the working electrode, while the counterelectrode was a Pt wire. The oxidation potentials were measured relative to a Ag/Ag^+ reference electrode. Acetonitrile was dried over P2O5 and distilled; the distillate was stored over CaH2 and redistilled just before use. Recrystallized tetrabutylammonium tetrafluoroborate (TBABF4) was used as a supporting electrolyte at 0.1 M concentration.
The electrochemical oxidation of the selected compounds studied in this work was performed by cyclic voltammetry on a stationary glassy carbon electrode in dry acetonitrile; the data is presented in Table 4. The perchlorates of the tested amphiphiles were obtained from the corresponding bromides by treating their abs. MeOH solutions with excess of conc. HClO4 according to the procedure elaborated by Turovska et al..

[10] = test system: cancer cell lines HT-1080 and MH-22A; assay: in vitro; format: cell-based
Description: as §2

in vitro [11] = conditions: mouse
Excerpt: Data from the in vitro tests were used for estimating the starting dose for acute oral systemic toxicity tests in the rodent. The in vivo starting dose is an estimated LD50 value calculated by inserting the in vitroIC50 value into a regression formula: log LD50 (mM/kg) = 0.439 log IC50 (mM) + 0.621 [23–25]. […] Using an alternative in vitro method allows the comparison between possibly toxic new compounds and selecting compounds for further study vastly reducing the number of animal experiments.
Additionally, the compound influence on “normal” mouse fibroblasts (NIH3T3) was estimated for the studies of structure-activity relationships and exploration of the effect of substituents.

[12] = HT-1080, Table 1, 72 h exposure
[13] = read-out: NIH3T3 IC50 (NR), Table 1, 24 h exposure
[14] = NIH3T3 LD50, Table 3, calculated from NIH3T3 IC50 by regression formula
[15] = HT-1080, Table 3, 72 h exposure
[16] = read-out: NIH3T3 IC50 (NR), Table 3, 24 h exposure

Row | SMILES | IC50 ([4]; read-out: NIH3T3 IC50 (NR)) [µg/mL] | IC50 [5] [µg/mL] | IC50 [1, 12] [µg/mL] | IC50 (MH-22A (mouse hepatoma) [2]; Table 1, 72 h exposure) [µg/mL] | IC50 at 72 h [3] [µg/mL] | IC50 at 72 h ([6]; HT-1080 cells (fibrosarcoma)) [µg/mL] | IC50 (MH-22A (mouse hepatoma) [7]; Table 1, 72 h exposure) [µg/mL] | toxicity to noncancerous NIH3T3 cells (in words) [4] | LD50 (in vitro [11]; [14]) [mg/kg] | IC50 (MH-22A (mouse hepatoma) [2]; Table 3, 72 h exposure) [µg/mL] | IC50 [4, 16] [µg/mL] | also measured
1 | CCCCCCCCCCCCOC(=O)C1=C(C[n+]2ccccc2)NC(C[n+]2ccccc2)=C(C(=O)OCCCCCCCCCCCC)C1c1ccccc1.[Br-].[Br-] [compound 10, 1,1'-((3,5-Bis((dodecyloxy)carbonyl)-4-phenyl-1,4-dihydropyridine-2,6-diyl)bis(methylene))bis(pyridin-1-ium) dibromide] | 100 ± 6 | 3 ± 0.5 |  |  |  |  |  |  |  |  |  | IC50 ([1]; HT-1080, 72 h): 3 ± 0.3 µg/mL; IC50 (MH-22A (mouse hepatoma) [2]; 72 h): 6 ± 1 µg/mL; IC50 [3]: 3 to 6 µg/mL; IC50 at 72 h [6]: ~3 µg/mL; IC50 (MH-22A (mouse hepatoma) [7]; 72 h): 3 ± 0.8 µg/mL; IC50 at 72 h (in vitro [8]): 3 to 6 µg/mL; Oxidation potential E^ox [9]: 1.58 V; electrooxidation potential [9]: 1.57–1.58 V
2 | CCCCCCCCCCCCOC(=O)C1=C(C[n+]2ccc(C)cc2)NC(C[n+]2ccc(C)cc2)=C(C(=O)OCCCCCCCCCCCC)C1c1ccccc1.[Br-].[Br-] [compound 12, 1,1'-((3,5-Bis((dodecyloxy)carbonyl)-4-phenyl-1,4-dihydropyridine-2,6-diyl)bis(methylene))bis(4-methylpyridin-1-ium) dibromide] | 79 ± 11 | 10 ± 2 | 5 ± 1 | 40 ± 2 | 29 to 40 | 5 to 10 | 29 ± 2 |  |  |  |  | 
3 | CCCCCCCCCCCCOC(=O)C1=C(C[n+]2cccc(C(C)=O)c2)NC(C[n+]2cccc(C(C)=O)c2)=C(C(=O)OCCCCCCCCCCCC)C1c1ccccc1.[Br-].[Br-] [compound 14, 1,1'-((3,5-Bis((dodecyloxy)carbonyl)-4-phenyl-1,4-dihydropyridine-2,6-diyl)bis(methylene))bis(3-acetylpyridin-1-ium) dibromide] | 922 ± 24 | 3 ± 0.4 | 3 ± 0.3 | 100 ± 13 | 50 to 100 | ~3 | 49 ± 9 | practically nontoxic |  |  |  | 
4 | CCCCCCCCCCCCOC(=O)C1=C(C[n+]2ccncc2)NC(C[n+]2ccncc2)=C(C(=O)OCCCCCCCCCCCC)C1c1ccccc1 [compound 16, 1,1'-((3,5-Bis((dodecyloxy)carbonyl)-4-phenyl-1,4-dihydropyridine-2,6-diyl)bis(methylne))bis(pyrazin-1-ium) dibromide] |  | > 100 | > 100 | > 100 |  |  | > 100 | nontoxic |  |  |  | IC50 [4, 13]: > 1000 µg/mL; cytotoxicity to cancer cell lines HT-1080 and MH-22A (in words) [10]: practically inert
5 | CCCCCCCCCCCCOC(=O)C1=C(C[n+]2ccc(C(F)(F)F)cc2)NC(C[n+]2ccc(C(F)(F)F)cc2)=C(C(=O)OCCCCCCCCCCCC)C1c1ccccc1.[Br-].[Br-] [compound 21, 1,1'-((3,5-Bis((dodecyloxy)carbonyl)-4-phenyl-1,4-dihydropyridine-2,6-diyl)bis(methylene))bis(4-(trifluoromethyl)pyridin-1-ium) dibromide] | 12 ± 4 | 2 ± 0.3 | 4 ± 0.5 | 49 ± 8 | 19 to 49 | 2 to 4 | 19 ± 6 |  |  |  |  | Oxidation potential E^ox [9]: 1.63 V; electrooxidation potential [9]: 1.63 V
6 | O=C(OCCCCCCCCCCCC(F)(F)F)C1=C(C[n+]2ccccc2)NC(C[n+]2ccccc2)=C(C(=O)OCCCCCCCCCCCC(F)(F)F)C1c1ccccc1.[O-][Cl+3]([O-])([O-])[O-].[O-][Cl+3]([O-])([O-])[O-] [compound 22, 1,1'-((4-phenyl-3,5-bis(((12,12,12-trifluorododecyl)oxy)carbonyl)-1,4-dihydropyridine-2,6-diyl)bis(methylene))bis(pyridin-1-ium) diperchlorate] |  | 18 ± 5 | 10 ± 2 | 10 ± 1 | 10 to 19 | 10 to 18 | 19 ± 5 |  |  |  |  | IC50 [4, 13]: 16 ± 3 µg/mL; Oxidation potential E^ox [9]: 1.57 V
7 | O=C(OCCCCCCCCCCCC(F)(F)C(F)(F)C(F)(F)C(F)(F)C(F)(F)C(F)(F)C(F)(F)C(F)(F)F)C1=C(C[n+]2ccccc2)NC(C[n+]2ccccc2)=C(C(=O)OCCCCCCCCCCCC(F)(F)C(F)(F)C(F)(F)C(F)(F)C(F)(F)C(F)(F)C(F)(F)C(F)(F)F)C1c1ccccc1 [compound 25] |  |  |  |  |  |  |  | low toxicity |  |  |  | cytotoxicity to cancer cell lines HT-1080 and MH-22A (in words) [10]: undetectable toxicity
8 | CCCCCCCCCCCCOC(=O)c1c(C[n+]2ccccc2)nc(C[n+]2ccccc2)c(C(=O)OCCCCCCCCCCCC)c1-c1ccccc1.[Br-].[Br-] [compound 27, 1,1’-((3,5-Bis(dodecyloxycarbonyl)-4-phenylpyridine-2,6-diyl)bis(methylene))-bis(pyridin-1-ium)dibromide] | 900 ± 42 | 3.2 ± 0.8 | 3.1 ± 0.5 | 3 ± 0.3 |  |  | 3.3 ± 0.4 | not harmful at all |  |  |  | LD50 (in vitro [11]; LD50 (calculated, NIH3T3), calculated from NIH3T3 IC50): 3950 mg/kg; IC50 at 72 h (in vitro [8]; HT-1080 cells and MH-22A cells (the value covers both lines)): ~3 µg/mL
9 | COC(=O)C1=C(C[n+]2ccccc2)NC(=O)CC1c1ccccc1OC(F)F.[Br-] (stereo not shown) [compound 28, 1-({4-[2-(Difluoromethoxy)phenyl]-3-(methoxycarbonyl)-6-oxo-1,4,5,6-tetrahydropyridin-2-yl}methyl)pyridinium bromide] | 1130 ± 85 | > 100 |  |  |  |  |  |  |  |  |  | IC50 ([1]; HT-1080, Table 2, 72 h exposure): > 100 µg/mL; IC50 (MH-22A (mouse hepatoma) [2]; Table 2, 72 h exposure): > 100 µg/mL; IC50 (MH-22A (mouse hepatoma) [7]; Table 2, 72 h exposure): > 100 µg/mL; cytotoxicity to cancer cell lines HT-1080 and MH-22A (in words) [10]: inert
10 | CCCCCCCCCCCCCCCCOC(=O)/C=C(\N)C[N+](C)(C)C1CCCCC1 [compound 39, (Z,E)-N-(2-Amino-4-(hexadecyloxy)-4-oxobut-2-en-1-yl)-N,N-dimethylcyclohexanaminium chloride] |  | 0.35 ± 0.06 |  |  |  |  |  |  | 97 | 1 ± 0.6 | 0.7 ± 0.1 | IC50 [1, 15]: 0.5 ± 0.1 µg/mL; IC50 (MH-22A (mouse hepatoma) [7]; Table 3, 72 h exposure): 0.2 ± 0.06 µg/mL
11 | CCCCCCCCCCCCCCCCOC(=O)/C=C(\N)C[N+](C)(C)CCCCCC [compound 43, (Z,E)-N-(2-Amino-4-(hexadecyloxy)-4-oxobut-2-en-1-yl)-N,N-dimethylhexan-1-aminium chloride] |  | 3 ± 0.6 |  |  |  |  |  |  | 538 | 2 ± 0.2 | 21 ± 6 | IC50 [1, 15]: 2 ± 0.4 µg/mL; IC50 (MH-22A (mouse hepatoma) [7]; Table 3, 72 h exposure): 1 ± 0.2 µg/mL
12 | CCCCCCCCCCCCOC(=O)/C=C(\N)C[n+]1ccccc1 [compound 47, (Z,E)-1-(2-Amino-4-(dodecyloxy)-4-oxobut-2-en-1-yl)pyridin-1-ium iodide] |  | 3 ± 0.4 |  |  |  |  |  |  | 403 | 2 ± 0.1 | 14 ± 9 | 
13 | CCCCCCCCCCCC[N+](C)(C)C/C(N)=C/C(=O)OCCCCCCCCCC [compound 48, (Z,E)-N-(2-Amino-4-(decyloxy)-4-oxobut-2-en-1-yl)-N,N-dimethyldodecan-1-aminium chloride] |  | 3 ± 0.4 |  |  |  |  |  |  | 485 | 2 ± 0.2 | 17 ± 3 | 
